According to ChEMBL document CHEMBL1157539, “Thousands of chemical starting points for antimalarial lead identification” (Nature, 2010):

Tested on: Plasmodium falciparum
Assay: GSK_TCMDC: Inhibition of Plasmodium falciparum 3D7 in whole erythrocytes, using parasite LDH activity as an index of growth.
Assay type: functional, organism-based
Conditions: Plasmodium falciparum, 3D7

SMILES: C(=C(c1cccs1)c1cccs1)c1ccc(CNC2CCN(Cc3ccccc3)CC2)cc1
- XC50: 161 nM

SMILES: Cc1ccc(NC(=O)c2cc(S(=O)(=O)NC(C)(C)C)ccc2C)nc1
- XC50: 756 nM

SMILES: CCCCC(CCCC)CN1C(=O)C(c2ccccc2)(c2ccccc2)N=C1N
- XC50: 182 nM

SMILES: CCCN(CC1CC1)c1ncc(-c2cccc(CNCc3ccccc3O)c2)cn1
- XC50: 700 nM

SMILES: O=C(/C=C/c1ccc(Cl)c(Cl)c1)NCCCCCN1CCC(NC(=O)NCCc2ccccc2)CC1
- XC50: 722 nM

SMILES: O=C(CCC1CCCC1)N(Cc1ccc(-c2ccc(CNCCc3ccccc3)cc2)cc1)C1CCCNC1 (configuration not stated)
- XC50: 1220 nM

SMILES: c1ccc2cc3c(Nc4ccc(N5CCCCC5)cc4)ccnc3cc2c1
- XC50: 739 nM

SMILES: O=C(Nc1ccc2c(c1)CCN2C1CCN(Cc2cc(F)cc(F)c2F)C1)c1ccco1 (configuration not stated)
- XC50: 590 nM

SMILES: COc1ccc2c(=O)c(-c3ccc(OC(F)(F)F)cc3)c(C)[nH]c2c1
- XC50: 233 nM

SMILES: O=C(Nc1ccc(Cl)cc1)Nc1cccc(CCNCc2ccccc2)c1
- XC50: 728 nM

SMILES: COc1cc2cc(-c3nc4ccccc4[nH]3)c(N)nc2cc1OC
- XC50: 168 nM

SMILES: CCc1nn2c(Nc3ccncc3)cc(C)nc2c1-c1ccccc1
- XC50: 203 nM

SMILES: CCC(C)NC(=O)Cn1c2ncccc2c(=O)n1-c1ccc(C)cc1 (configuration not stated)
- XC50: 1260 nM

SMILES: CN(C)C(CNC(=O)c1cc(-c2ccncc2)c(-c2ccc(NC(=O)Nc3cccc(Cl)c3)cc2)o1)c1ccccc1 (configuration not stated)
- XC50: 183 nM

SMILES: COc1c(C2CCN(CCCCNC(=O)c3ccc(-c4ccc(Cl)cc4)c(OCCN(C)C)c3)CC2)ccc2c1CCCC2
- XC50: 190 nM

SMILES: CN(C)CC1CCCN1Cc1ccccc1-c1cnn(C)c(=O)c1Oc1ccccc1F (configuration not stated)
- XC50: 1310 nM

SMILES: O=S(=O)(c1cccc(F)c1)c1ccc(Nc2ncnc3cc(Br)sc23)cc1Cl
- XC50: 1030 nM

SMILES: C=CCOC(=O)N1CCC(CNCc2ccc(-c3cccc(-c4nc5ccccc5[nH]4)c3)cc2)C1 (configuration not stated)
- XC50: 255 nM

SMILES: O=C(Nc1ccc2c(c1)CN(Cc1ccc(N3CCCC3)o1)CCC2)c1ccoc1
- XC50: 953 nM

SMILES: Cc1cccc(NC(=O)NC2CCN(CCCCCNC(=O)/C=C/c3ccc(Cl)c(Cl)c3)CC2)c1
- XC50: 753 nM

SMILES: COc1cc(Cc2cnc(N)nc2N)cc(OCCCCCC(N)=O)c1OC
- XC50: 1190 nM

SMILES: COc1ccc(-c2ccc(NC(=O)c3cccc(C#N)c3)cc2)cc1CN(C)C
- XC50: 735 nM

SMILES: CCc1cn2c3c(cc(C(=O)N[C@@H](Cc4ccccc4)[C@H](O)CNC4CCCCC4)cc13)N(CC)S(=O)(=O)CC2
- XC50: 31.4 nM

SMILES: O=[N+]([O-])c1c(O)nc2c(c1O)CCC2
- XC50: 1050 nM

SMILES: FC(F)(F)c1ccc2[nH]c(-c3cccc(-c4ccc(CNCc5cnn(-c6ccccc6)n5)cc4)c3)nc2c1
- XC50: 1330 nM

SMILES: Cc1ccc(Nc2nc(C)cc(NC3CCN(C)CC3)n2)cc1
- XC50: 497 nM

SMILES: COc1cc2nc(N3CCC(CNC(=O)c4ccc(-c5ccc(C(=O)N(C)C)cc5OCCO)cc4)CC3)nc(N)c2cc1OC
- XC50: 645 nM

SMILES: CCc1ccc(S(=O)(=O)Nc2ccc(CCN3CCC(N4CCCCC4)CC3)cc2)cc1
- XC50: 988 nM

SMILES: CN1CCC(NCc2ccc(-c3cccc(S(=O)(=O)NCc4ccccc4)c3)cc2)CC1
- XC50: 324 nM

SMILES: O=C(N[C@@H](CC1CCCCC1)C(=O)NCc1cccc2ccccc12)c1ccc(O)c(-c2ccc(Cl)c(Cl)c2)c1
- XC50: 216 nM

SMILES: CC[C@H](NC(=O)c1c(CN2CCC(N3CCCCC3)CC2)c(-c2ccccc2)nc2cc(O)ccc12)c1ccccc1
- XC50: 1370 nM

SMILES: O=C(Nc1ccc(-c2cccc(-c3nc4ccccc4[nH]3)c2)cc1)c1cnn2cccnc12
- XC50: 597 nM

SMILES: CC(C(=O)Nc1ccc(Br)cc1Br)N1CCN(C(=O)c2ccco2)CC1 (configuration not stated)
- XC50: 750 nM

SMILES: O=C(NC1CCC(CN2CCC(c3c[nH]c4ccccc34)CC2)CC1)NC12CC3CC(CC(C3)C1)C2 (configuration not stated)
- XC50: 1060 nM

SMILES: Cn1cncc1C(=O)Nc1cccc(-c2ccc(-c3nc4cc(C(F)(F)F)ccc4[nH]3)cc2)c1
- XC50: 509 nM

SMILES: Cc1[nH]c(C)c(-c2ccc(Oc3cccc(C(F)(F)F)c3)cc2)c(=O)c1Br
- XC50: 7.69 nM

SMILES: CC(=O)c1ccc(-c2ccc(C(=O)NCCCCN3CCC(c4ccc5c(c4OCC(N)=O)CCCC5)CC3)cc2)s1
- XC50: 893 nM

SMILES: CS(=O)(=O)NCCCNCc1cccc(-c2csc(-c3nc4ccccc4[nH]3)c2)c1
- XC50: 1010 nM

SMILES: N=C(N)NC(=O)Nc1cc(Br)c(Cl)c(C(F)(F)F)c1
- XC50: 758 nM

SMILES: COc1cc(CN2CCC(CO)(Cc3cccc(C(F)(F)F)c3)CC2)c(Cl)cc1O
- XC50: 896 nM

SMILES: Cc1c(F)cc(C(=O)NC2CC2)cc1-c1ccc2c(c1)c(C)nn2S(=O)(=O)c1cccs1
- XC50: 942 nM

SMILES: NC(=O)c1cccc(CN2Cc3ccccc3OC3(CCN(Cc4c[nH]c5cnccc45)CC3)C2)c1
- XC50: 1060 nM

SMILES: CN1CCCC1CCOc1ccc2c(c1)N(C(=O)Nc1cc(Br)cc(C(F)(F)F)c1)CC2 (configuration not stated)
- XC50: 247 nM

SMILES: O=C(/C=C/c1ccc(Cl)c(Cl)c1)Nc1cccc(CN2CCC(c3c[nH]c4ccc(O)cc34)CC2)c1
- XC50: 945 nM

SMILES: CN1CCC(c2ccc(NC(=O)c3ccc(-c4cccc(C(F)(F)F)c4)o3)cc2)CC1
- XC50: 1130 nM

SMILES: CN(CC(=O)N1CCN(S(=O)(=O)c2cccc(Cl)c2)CC1CN1CCCC1)c1ccc(Cl)c(Cl)c1 (configuration not stated)
- XC50: 1240 nM

SMILES: O=S(=O)(Nc1ccc(CCN2CCCCC2CCN2CCCC2)cc1)c1cccc2cccnc12 (configuration not stated)
- XC50: 1300 nM

SMILES: COC(=O)c1sc(-c2ccc(Cl)cc2)cc1N(CCCN1CCC(N2CCCCC2)CC1)S(=O)(=O)c1ccc(C)cc1
- XC50: 744 nM

SMILES: O=C(Nc1ccc(C(F)(F)F)cc1)NC1CCN(c2ccnc3ccccc23)C1 (configuration not stated)
- XC50: 87.5 nM

SMILES: O=C(Nc1ccc(-c2ccccc2)cc1)Nc1cccc(Cn2nc(Cl)c(N3CCNCC3)cc2=O)c1
- XC50: 369 nM

SMILES: CCN(CC)CCNC(=O)c1ccc(Nc2ncc([N+](=O)[O-])c(Nc3ccccc3OC)n2)cc1
- XC50: 144 nM

SMILES: O=C(Nc1ccccc1Cc1ccccc1)c1ccccc1[N+](=O)[O-]
- XC50: 860 nM

SMILES: COc1ccc2nc(-c3cc(-c4ccc(NC(=O)CN5CCOCC5)cc4)cnc3N)[nH]c2c1
- XC50: 616 nM

SMILES: Cc1noc(C)c1-c1cccc(CNCc2ccc(-c3ccc(-c4nc5cc(F)ccc5[nH]4)cc3)cc2)c1
- XC50: 212 nM

SMILES: COc1ccc(/C=C/C(=O)N2CCc3cc4nccc(N5CCN6CCC[C@H]6C5)c4cc32)cc1
- XC50: 642 nM

SMILES: NCc1cccc(-c2cccc(CN(C(=O)Nc3ccccc3)C3CCN(Cc4ccccc4)CC3)c2)c1
- XC50: 829 nM

SMILES: Cc1csc(-c2ccc3[nH]cc(C4=CCN(C)CC4)c3c2)n1
- XC50: 754 nM

SMILES: COc1ccc(CN(C)CCOc2ccc(NC(=O)c3cccc4c(=O)c5cc(SC)ccc5[nH]c34)cc2)cc1OC
- XC50: 877 nM

SMILES: O=C(N[C@@H](Cc1ccccc1)[C@H](O)CNCCC(F)(F)F)c1cccc(OCC2CC2)c1
- XC50: 616 nM

SMILES: O=C(NC1CCC(CN2CCC(c3c[nH]c4ccccc34)CC2)CC1)c1cn(Cc2ccccc2)c2ccccc12 (configuration not stated)
- XC50: 1130 nM

SMILES: O=C(Nc1cc(Cl)cc(Cl)c1)c1cc(Cl)c(=O)n(Cc2ccc(Cl)cc2)c1
- XC50: 863 nM

SMILES: O=C(C=Cc1ccc(Cl)c(Cl)c1)NCCCCCN1CCCC(CCCNC(=O)C2CC2c2ccccc2)C1 (configuration not stated)
- XC50: 1130 nM

SMILES: Cc1ccc(CN2CCC(Oc3cccc(NC(=O)c4ccc(C(F)(F)F)cc4)c3)CC2)cc1
- XC50: 1020 nM

SMILES: CCCc1ccc(Cc2cnc3nc(N)nc(N)c3c2C)cc1
- XC50: 283 nM

SMILES: Cc1cccc(C(=O)NCCCN2CCC(NC(=O)/C=C/c3ccc(Cl)c(Cl)c3)CC2)c1
- XC50: 1700 nM

SMILES: CCCN(CCC)CC(O)COc1ccccc1C(=O)Nc1ccccc1 (configuration not stated)
- XC50: 799 nM

SMILES: Cc1cc(Cl)c(Cl)cc1NC(=O)Nc1cccc(C(F)(F)F)c1
- XC50: 873 nM

SMILES: Cc1sc(CNCCCNc2cc(=O)c3ccccc3[nH]2)c(I)c1C
- XC50: 849 nM

SMILES: CC(C)c1ccc(NC(=O)NC2CCN(CCCCCNC(=O)/C=C/c3ccc(Cl)c(Cl)c3)CC2)cc1
- XC50: 674 nM

SMILES: CCC(NCc1ccc(-c2cncc(C(=O)NCC(C)C)c2)cc1)c1ccccc1 (configuration not stated)
- XC50: 944 nM

SMILES: Cc1cc(C(=O)Nc2ccc(-c3nc4ccccc4[nH]3)cc2)ccc1[N+](=O)[O-]
- XC50: 671 nM

SMILES: CCc1cc(OC)c(C(=O)NC2CCN(C[C@H](O)c3ccnc4ccc(OC)cc34)CC2)cc1Br
- XC50: 815 nM

SMILES: CN(C)CCNc1cc(-c2ccc3ccccc3c2)nc2ccccc12
- XC50: 350 nM

SMILES: Cc1cc2nc(-c3cc(Br)ccc3O)c(-c3cc(Br)ccc3O)nc2cc1C
- XC50: 853 nM

SMILES: O=C(/C=C/c1ccc(Cl)c(Cl)c1)NCCCCN1CCCN(C(=O)Nc2ccc(C(F)(F)F)cc2)CC1
- XC50: 847 nM

SMILES: Cc1[nH]c2c(C)cccc2c1C1CCN(CCC2CCN(C(=O)/C=C/c3ccc(Cl)c(Cl)c3)CC2)CC1
- XC50: 636 nM

SMILES: CCCNCc1ccc(-c2ccc(CNC3Cc4ccccc4C3)cc2)nc1
- XC50: 848 nM

SMILES: COc1cc(CCCOc2c(N)nc(N)nc2N)cc(OC)c1OC
- XC50: 1220 nM

SMILES: Fc1ccc2c(NN=Cc3ccccc3)ccnc2c1
- XC50: 739 nM

SMILES: COc1c(C2CCN(CCCCNC(=O)c3cc(-c4ccc(C#N)cc4)n[nH]3)CC2)ccc2c1CCCC2
- XC50: 1160 nM

SMILES: O=C(Nc1cccc(CN2CCCN(Cc3ccc(F)cc3)CC2)c1)c1cc2ccccc2s1
- XC50: 794 nM

SMILES: O=c1ccc2ccc(F)cc2n1CCN1CCC(NCc2ccc(-c3ccccn3)s2)CC1
- XC50: 887 nM

SMILES: Clc1ccc2c(NN=Cc3cccnc3)ccnc2c1
- XC50: 696 nM

SMILES: C=CCc1cccc(CN2CCC(c3cc(O)nc(-c4ccccn4)n3)CC2)c1O
- XC50: 1100 nM

SMILES: COc1ccc2c(NN=CC=Cc3ccccc3)ccnc2c1
- XC50: 770 nM

SMILES: CC(C)(C)NCCN(Cc1ccc(-c2ccc(C(F)(F)F)cc2)cc1)C(=O)Cn1c(CCc2cccc(F)c2F)nc(=O)c2ccccc21
- XC50: 764 nM

SMILES: C=CCNS(=O)(=O)c1ccc(NC(=O)C(C)Oc2ccc([N+](=O)[O-])cc2)cc1 (configuration not stated)
- XC50: 1220 nM

SMILES: COc1cc(NCCCCNc2ccc(Cl)c(Cl)c2)nc2ccccc12
- XC50: 527 nM

SMILES: Cc1cc(O)nc(NC#N)n1
- XC50: 166 nM

SMILES: Cc1ccccc1C1CCN(C2CCC(NC(=O)c3csc(-c4cccc(Cl)c4)n3)CC2)CC1 (configuration not stated)
- XC50: 1150 nM

SMILES: CCN(CCCN1CCCCC1)c1cc(C)nc(Nc2ccc(C)c(Cl)c2)n1
- XC50: 207 nM

SMILES: O=C(Nc1ccc(-c2cccc(-c3nc4cc(C(F)(F)F)ccc4[nH]3)c2)cc1)c1ccncc1
- XC50: 664 nM

SMILES: CC(=O)Nc1ccc(OCCCCN(Cc2ccccc2C(F)(F)F)c2ccc(C#N)c(C(F)(F)F)c2)cc1
- XC50: 1390 nM

SMILES: Cc1cc(NC(=O)[C@@H](Nc2ccc(C#N)c3ccccc23)C2CCCCC2)ccc1F
- XC50: 892 nM

SMILES: Cn1nccc1C(=O)NCCNCc1cccc(-c2ccc(-c3nc4cc(C(F)(F)F)ccc4[nH]3)cc2)c1
- XC50: 122 nM

SMILES: COc1ccc(-c2cnc3ccc(NCCCO)nn23)cc1OC
- XC50: 672 nM

SMILES: O=C(Nc1ccccc1F)N(CCCn1ccnc1)Cc1csc(-c2ccc(CNCc3ccccc3)cc2)n1
- XC50: 841 nM
